The subject of the assay is M. tuberculosis H37Rv growth inhibition with meropenem. Briefly: dose response, H37Rv, with and without meropenem (AID 434987).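 Further: growth over 7 days at 37 °C before Alamar Blue read on day 9.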
Where [1] appears, read: M. tuberculosis H37Rv growth inhibition, measured here: IC50 without meropenem.
The mark [2] stands for this setting: M. tuberculosis H37Rv growth inhibition, measured here: IC90 without meropenem.
Setting [3] is: measured here: IC90 with meropenem.

Calls of active or inactive are those of the source. How the calls were made is not given here.

By IC50 is commonly meant the concentration needed to halve the response being measured. The IC90 is the concentration at which the effect reaches the 90% level. A higher IC90 goes with weaker potency.

As for `Cc1nc2sc3c(c2c2nnc(SCC(=O)NCc4ccco4)n12)CCCC3`, the IC50 is 82.6 µM (inactive). In addition, the IC50 under setting [1] was determined as 80.4 µM. Besides, the IC90 under setting [2] was > 100 µM. The 90% effect concentration (IC90) under setting [3] was > 100 µM.
In the case of `Cc1ccc(CN2C(=O)N/C(=C\c3ccc(-c4ccc(C(=O)O)cc4C)o3)C2=O)cc1`, the IC50 is 5.14 µM. Besides, the IC50 under setting [1] was 23.8 µM. For the same compound, under setting [2], the IC90 was > 100 µM. The compound further yielded an IC90 under setting [3] of 14.7 µM.
For `C/C(=N\OCC(=O)Nc1nc2ccccc2s1)c1ccccc1`, the half-inhibitory concentration (IC50) was 13.1 µM. Also, the half-maximal inhibitory concentration (IC50) under setting [1] is 47.6 µM. Also, the IC90 under setting [2] worked out at 54.1 µM. The compound further yielded an IC90 under setting [3] of 35.6 µM.
For `Cc1cccc(CSc2nnc(C)c(=O)n2N)c1`, in that order: 5.94 µM (inactive), 12.4 µM, 20.9 µM and 9.9 µM.
Consider `O=C(Nc1ccc(S(=O)(=O)N2CCCCC2)cc1)C1CCCN(C(=O)c2ccc(Cl)cc2)C1` (stereo not drawn), for which the IC50 was > 100 µM (inactive). Besides, the IC50 under setting [1] was > 100 µM. In addition, the IC90 under setting [2] is > 100 µM. Besides, the IC90 under setting [3] was > 100 µM.
As to `CC12CCC(C/C1=N/NC(=O)Nc1ccccc1)C2(C)C` (stereo not drawn), the IC50 was 14.9 µM. The IC50 under setting [1] was > 100 µM. Moreover, under setting [2], the IC90 is > 100 µM. The IC90 under setting [3] is > 50 µM.
`COc1ccccc1N(C)S(=O)(=O)c1ccc(C(=O)OCC(=O)N2CCCCCC2)cc1`: the IC50 was > 50 µM (inactive). Further, the IC50 under setting [1] was > 100 µM. Besides, the IC90 under setting [2] is > 100 µM. Besides, the IC90 under setting [3] was > 50 µM.
As for `CCOc1cc(N2CCOCC2)c(OCC)cc1NC(=O)c1cc(C)cc(C)c1`, the IC50 is 23.7 µM. Further, under setting [1], the IC50 was > 100 µM. Further, under setting [2], the IC90 was > 100 µM. Further, under setting [3], the IC90 is > 100 µM.
For `Cc1ccc(C(=O)Nc2c(C)cc(C)c3cccnc23)cc1`, the IC50 was 2.39 µM. Moreover, under setting [1], the IC50 turned out to be 10.3 µM. Moreover, under setting [2], the IC90 is > 50 µM. Under setting [3], this compound had an IC90 of 10.5 µM.
For `COc1ccc(NC(=O)C/C(C)=N/NC(=O)c2cnccn2)cc1`, in that order: 20.1 µM, > 100 µM, > 100 µM and > 100 µM.
For `CC(C)Cn1c2c(c(O)c(C(=O)Nc3nccs3)c1=O)CCCC2`, the IC50 was 3.22 µM. Under setting [1], this compound gave an IC50 of 45.7 µM. The compound further came in with an IC90 under setting [2] of 52.4 µM. The IC90 under setting [3] was > 100 µM.
The matching figures for `O=C(NCc1nc2ncc(Br)cc2[nH]1)c1ccccc1`: 49.2 µM (inactive), 94 µM, > 100 µM and 54.9 µM.
In the case of `Cc1cc(N2CCN(c3ccccc3)CC2)nc2ccccc12`, the IC50 was > 100 µM (inactive). Also, the IC50 under setting [1] was > 100 µM. Moreover, the IC90 under setting [2] is > 100 µM. Under setting [3], the IC90 was > 100 µM.
Regarding `CCCCN(CC)S(=O)(=O)c1ccc(C(=O)Nc2nnc(CSC)o2)cc1`, the IC50 is 17.2 µM (inactive). The IC50 under setting [1] was found to be 25.2 µM. Under setting [2], the 90% effect concentration (IC90) was > 100 µM. In addition, the IC90 under setting [3] turned out to be 31.7 µM.
The matching figures for `CCc1ccc2c(c1)C(c1ccc([N+](=O)[O-])cc1)=NNC(c1ccc(C)cc1)=N2`: > 100 µM (inactive), > 100 µM, > 100 µM and > 100 µM.
As for `COc1ccc(C(=O)NC(=S)NC(C)(C)C)cc1Br`, the IC50 was > 100 µM (inactive). Under setting [1], the IC50 was > 100 µM. Besides, the IC90 under setting [2] is > 100 µM. The IC90 under setting [3] is > 100 µM.
Turning to `COc1ccc(OC)c2nc(-c3ccc4c(c3)OCO4)ccc12`, the IC50 is 17.7 µM. Besides, the IC50 under setting [1] is > 100 µM. For the same compound, under setting [2], the concentration for an effect of 90% (IC90) is > 100 µM. The IC90 under setting [3] is > 25 µM.
As for `Cc1ccccc1NC(=O)c1ccc(CN(c2ccccc2)S(=O)(=O)c2ccccc2)cc1`, the IC50 is > 100 µM (inactive). The IC50 under setting [1] is > 100 µM. In addition, the 90% effect concentration (IC90) under setting [2] was > 100 µM. Besides, the IC90 under setting [3] is > 100 µM.
For `O=c1c(O)c(-c2ccc3c(c2)OCO3)oc2ccccc12`, the IC50 was 2.12 µM. Further, the 50% inhibitory concentration (IC50) under setting [1] is > 100 µM. Moreover, the 90% effect concentration (IC90) under setting [2] was > 100 µM. Also, the IC90 under setting [3] was > 100 µM.
For the compound `O=C(c1cccc(C(=O)N2CCN(c3ccc(F)cc3)CC2)c1)N1CCN(c2ccc(F)cc2)CC1`, the IC50 was 93.2 µM (inactive). This compound also yielded an IC50 under setting [1] of 95.2 µM. Further, the IC90 under setting [2] is > 100 µM. For the same compound, under setting [3], the 90% effect concentration (IC90) is > 100 µM.
For the compound `Cc1cc2c(=O)oc(-c3ccc(Br)cc3)nc2s1`, the IC50 is > 100 µM (inactive). Besides, the IC50 under setting [1] is > 100 µM. Moreover, under setting [2], the IC90 is > 100 µM. Also, the IC90 under setting [3] was > 100 µM.
`CN(Cc1ccccc1)C(=S)NC(=O)c1ccc(-c2ccccc2)cc1`: the IC50 is 7.23 µM. Besides, the IC50 under setting [1] was 24.2 µM. Under setting [2], the IC90 was > 100 µM. Moreover, under setting [3], the IC90 was > 100 µM.
